Data published in the NIST ThermoML archive (doi:10.1016/j.jct.2018.08.005).
± gives the expanded uncertainty stated by the source.

Experiment: xn = mol fraction of the nth substance listed
Settings: Liquid; for mass density: Vibrating tube method; for speed of sound: Frequency=3 MHz, Pulse-echo method
[1] = 303.15 K, 40000 kPa, x1 = 0.375
[2] = 303.15 K, 40000 kPa, x1 = 0.625
[3] = 303.15 K, 60000 kPa, x1 = 0.375
[4] = 303.15 K, 60000 kPa, x1 = 0.625
[5] = 303.15 K, 80000 kPa, x1 = 0.375
[6] = 303.15 K, 100000 kPa, x1 = 0.25
[7] = 303.15 K, 100000 kPa, x1 = 0.375
[8] = 303.15 K, 100000 kPa, x1 = 0.625
[9] = 303.15 K, 100000 kPa, x1 = 0.75
[10] = 313.15 K, 20000 kPa, x1 = 0.375
[11] = 313.15 K, 20000 kPa, x1 = 0.625
[12] = 313.15 K, 40000 kPa, x1 = 0.375
[13] = 313.15 K, 40000 kPa, x1 = 0.625

Compound: CCOC(F)(C(F)(F)C(F)(F)C(F)(F)F)C(F)(C(F)(F)F)C(F)(F)F (stereo not given) [2-trifluoromethyl-3-ethoxydodecafluorohexane] + CC(C)OC(C)C
- mass density (303.15 K, 20000 kPa, x1 = 0.375): 1201.2 ± 0.8 kg/m3
- mass density (303.15 K, 20000 kPa, x1 = 0.5): 1314.1 ± 0.8 kg/m3
- mass density (303.15 K, 20000 kPa, x1 = 0.625): 1417.3 ± 0.9 kg/m3
- mass density (303.15 K, 20000 kPa, x1 = 0.75): 1505.1 ± 1 kg/m3
- mass density (303.15 K, 30000 kPa, x1 = 0.25): 1087.7 ± 0.8 kg/m3
- mass density (303.15 K, 30000 kPa, x1 = 0.375): 1217 ± 0.8 kg/m3
- mass density (303.15 K, 30000 kPa, x1 = 0.5): 1331.1 ± 0.9 kg/m3
- mass density (303.15 K, 30000 kPa, x1 = 0.625): 1435.3 ± 1 kg/m3
- mass density (303.15 K, 30000 kPa, x1 = 0.75): 1523.8 ± 1.1 kg/m3
- speed of sound (303.15 K, 40000 kPa, x1 = 0.25): 1001.7 ± 2.2 m/s
- speed of sound [1]: 948.6 ± 2.2 m/s
- speed of sound (303.15 K, 40000 kPa, x1 = 0.5): 909.1 ± 2.2 m/s
- speed of sound [2]: 889.5 ± 2.2 m/s
- speed of sound (303.15 K, 40000 kPa, x1 = 0.75): 864.7 ± 2.2 m/s
- mass density (303.15 K, 40000 kPa, x1 = 0.25): 1100.3 ± 0.8 kg/m3
- mass density [1]: 1231.1 ± 0.9 kg/m3
- mass density (303.15 K, 40000 kPa, x1 = 0.5): 1346.3 ± 1 kg/m3
- mass density [2]: 1451.3 ± 1.2 kg/m3
- mass density (303.15 K, 40000 kPa, x1 = 0.75): 1540.4 ± 1.3 kg/m3
- mass density (303.15 K, 50000 kPa, x1 = 0.25): 1111.7 ± 0.8 kg/m3
- mass density (303.15 K, 50000 kPa, x1 = 0.375): 1243.8 ± 1 kg/m3
- mass density (303.15 K, 50000 kPa, x1 = 0.5): 1360 ± 1.1 kg/m3
- mass density (303.15 K, 50000 kPa, x1 = 0.625): 1465.8 ± 1.3 kg/m3
- mass density (303.15 K, 50000 kPa, x1 = 0.75): 1555.5 ± 1.5 kg/m3
- speed of sound (303.15 K, 60000 kPa, x1 = 0.25): 1089.1 ± 2.2 m/s
- speed of sound [3]: 1032.1 ± 2.2 m/s
- speed of sound (303.15 K, 60000 kPa, x1 = 0.5): 989.8 ± 2.2 m/s
- speed of sound [4]: 969.5 ± 2.2 m/s
- speed of sound (303.15 K, 60000 kPa, x1 = 0.75): 941.8 ± 2.2 m/s
- mass density (303.15 K, 60000 kPa, x1 = 0.25): 1122.1 ± 0.9 kg/m3
- mass density [3]: 1255.4 ± 1 kg/m3
- mass density (303.15 K, 60000 kPa, x1 = 0.5): 1372.6 ± 1.3 kg/m3
- mass density [4]: 1479.2 ± 1.5 kg/m3
- mass density (303.15 K, 60000 kPa, x1 = 0.75): 1569.3 ± 1.8 kg/m3
- mass density (303.15 K, 70000 kPa, x1 = 0.25): 1131.8 ± 0.9 kg/m3
- mass density (303.15 K, 70000 kPa, x1 = 0.375): 1266.2 ± 1.1 kg/m3
- mass density (303.15 K, 70000 kPa, x1 = 0.5): 1384.2 ± 1.4 kg/m3
- mass density (303.15 K, 70000 kPa, x1 = 0.625): 1491.4 ± 1.7 kg/m3
- mass density (303.15 K, 70000 kPa, x1 = 0.75): 1582.1 ± 2 kg/m3
- speed of sound (303.15 K, 80000 kPa, x1 = 0.25): 1164.4 ± 2.2 m/s
- speed of sound [5]: 1104 ± 2.2 m/s
- speed of sound (303.15 K, 80000 kPa, x1 = 0.5): 1059.8 ± 2.2 m/s
- speed of sound (303.15 K, 80000 kPa, x1 = 0.75): 1008.7 ± 2.2 m/s
- mass density (303.15 K, 80000 kPa, x1 = 0.25): 1140.8 ± 0.9 kg/m3
- mass density [5]: 1276.1 ± 1.2 kg/m3
- mass density (303.15 K, 80000 kPa, x1 = 0.5): 1395.1 ± 1.6 kg/m3
- mass density (303.15 K, 80000 kPa, x1 = 0.625): 1502.8 ± 2 kg/m3
- mass density (303.15 K, 80000 kPa, x1 = 0.75): 1594 ± 2.3 kg/m3
- mass density (303.15 K, 90000 kPa, x1 = 0.25): 1149.3 ± 1 kg/m3
- mass density (303.15 K, 90000 kPa, x1 = 0.375): 1285.5 ± 1.3 kg/m3
- mass density (303.15 K, 90000 kPa, x1 = 0.5): 1405.2 ± 1.8 kg/m3
- mass density (303.15 K, 90000 kPa, x1 = 0.625): 1513.6 ± 2.2 kg/m3
- mass density (303.15 K, 90000 kPa, x1 = 0.75): 1605.2 ± 2.5 kg/m3
- speed of sound [6]: 1231.9 ± 2.2 m/s
- speed of sound [7]: 1170.1 ± 2.2 m/s
- speed of sound (303.15 K, 100000 kPa, x1 = 0.5): 1123 ± 2.2 m/s
- speed of sound [8]: 1101.7 ± 2.2 m/s
- speed of sound [9]: 1068.1 ± 2.2 m/s
- mass density [6]: 1157.3 ± 1 kg/m3
- mass density [7]: 1294.3 ± 1.5 kg/m3
- mass density (303.15 K, 100000 kPa, x1 = 0.5): 1414.8 ± 2 kg/m3
- mass density [8]: 1523.7 ± 2.4 kg/m3
- mass density [9]: 1615.8 ± 2.8 kg/m3
- mass density (303.15 K, 110000 kPa, x1 = 0.25): 1164.9 ± 1.1 kg/m3
- mass density (303.15 K, 110000 kPa, x1 = 0.375): 1302.8 ± 1.6 kg/m3
- mass density (303.15 K, 110000 kPa, x1 = 0.5): 1423.9 ± 2.2 kg/m3
- mass density (303.15 K, 110000 kPa, x1 = 0.625): 1533.3 ± 2.7 kg/m3
- mass density (303.15 K, 110000 kPa, x1 = 0.75): 1625.8 ± 3.1 kg/m3
- mass density (303.15 K, 120000 kPa, x1 = 0.25): 1172.1 ± 1.2 kg/m3
- mass density (303.15 K, 120000 kPa, x1 = 0.375): 1310.8 ± 1.8 kg/m3
- mass density (303.15 K, 120000 kPa, x1 = 0.5): 1432.6 ± 2.4 kg/m3
- mass density (303.15 K, 120000 kPa, x1 = 0.625): 1542.4 ± 2.9 kg/m3
- mass density (303.15 K, 120000 kPa, x1 = 0.75): 1635.3 ± 3.4 kg/m3
- mass density (303.15 K, 130000 kPa, x1 = 0.25): 1178.8 ± 1.2 kg/m3
- mass density (303.15 K, 130000 kPa, x1 = 0.375): 1318.4 ± 1.9 kg/m3
- mass density (303.15 K, 130000 kPa, x1 = 0.5): 1440.8 ± 2.6 kg/m3
- mass density (303.15 K, 130000 kPa, x1 = 0.625): 1551.2 ± 3.2 kg/m3
- mass density (303.15 K, 130000 kPa, x1 = 0.75): 1644.4 ± 3.7 kg/m3
- mass density (303.15 K, 140000 kPa, x1 = 0.25): 1185.4 ± 1.3 kg/m3
- mass density (303.15 K, 140000 kPa, x1 = 0.375): 1325.9 ± 2.1 kg/m3
- mass density (303.15 K, 140000 kPa, x1 = 0.5): 1448.7 ± 2.8 kg/m3
- mass density (303.15 K, 140000 kPa, x1 = 0.625): 1559.5 ± 3.4 kg/m3
- mass density (303.15 K, 140000 kPa, x1 = 0.75): 1653.1 ± 4 kg/m3
- speed of sound (313.15 K, 100 kPa, x1 = 0.25): 729.6 ± 2.2 m/s
- speed of sound (313.15 K, 100 kPa, x1 = 0.5): 656.3 ± 2.2 m/s
- speed of sound (313.15 K, 100 kPa, x1 = 0.625): 641.2 ± 2.2 m/s
- speed of sound (313.15 K, 100 kPa, x1 = 0.75): 626.5 ± 2.2 m/s
- mass density (313.15 K, 100 kPa, x1 = 0.25): 1022.4 ± 0.8 kg/m3
- mass density (313.15 K, 100 kPa, x1 = 0.375): 1144.5 ± 0.8 kg/m3
- mass density (313.15 K, 100 kPa, x1 = 0.5): 1253.4 ± 0.8 kg/m3
- mass density (313.15 K, 100 kPa, x1 = 0.625): 1351.8 ± 0.8 kg/m3
- mass density (313.15 K, 100 kPa, x1 = 0.75): 1438.4 ± 0.8 kg/m3
- mass density (313.15 K, 10000 kPa, x1 = 0.25): 1042.9 ± 0.8 kg/m3
- mass density (313.15 K, 10000 kPa, x1 = 0.375): 1167.7 ± 0.8 kg/m3
- mass density (313.15 K, 10000 kPa, x1 = 0.5): 1278.3 ± 0.8 kg/m3
- mass density (313.15 K, 10000 kPa, x1 = 0.625): 1378.1 ± 0.8 kg/m3
- mass density (313.15 K, 10000 kPa, x1 = 0.75): 1465.4 ± 0.8 kg/m3
- speed of sound (313.15 K, 20000 kPa, x1 = 0.25): 870.2 ± 2.2 m/s
- speed of sound [10]: 821.7 ± 2.2 m/s
- speed of sound (313.15 K, 20000 kPa, x1 = 0.5): 786.8 ± 2.2 m/s
- speed of sound [11]: 769.5 ± 2.2 m/s
- speed of sound (313.15 K, 20000 kPa, x1 = 0.75): 749.4 ± 2.2 m/s
- mass density (313.15 K, 20000 kPa, x1 = 0.25): 1060.3 ± 0.8 kg/m3
- mass density [10]: 1187.2 ± 0.8 kg/m3
- mass density (313.15 K, 20000 kPa, x1 = 0.5): 1299.2 ± 0.8 kg/m3
- mass density [11]: 1400.1 ± 0.9 kg/m3
- mass density (313.15 K, 20000 kPa, x1 = 0.75): 1488.1 ± 1 kg/m3
- mass density (313.15 K, 30000 kPa, x1 = 0.25): 1075.3 ± 0.8 kg/m3
- mass density (313.15 K, 30000 kPa, x1 = 0.375): 1203.9 ± 0.8 kg/m3
- mass density (313.15 K, 30000 kPa, x1 = 0.5): 1317.2 ± 0.9 kg/m3
- mass density (313.15 K, 30000 kPa, x1 = 0.625): 1419.2 ± 1 kg/m3
- mass density (313.15 K, 30000 kPa, x1 = 0.75): 1507.8 ± 1.1 kg/m3
- speed of sound (313.15 K, 40000 kPa, x1 = 0.25): 975.8 ± 2.2 m/s
- speed of sound [12]: 924.1 ± 2.2 m/s
- speed of sound (313.15 K, 40000 kPa, x1 = 0.5): 885.6 ± 2.2 m/s
- speed of sound [13]: 866.8 ± 2.2 m/s
- speed of sound (313.15 K, 40000 kPa, x1 = 0.75): 843.3 ± 2.2 m/s
- mass density (313.15 K, 40000 kPa, x1 = 0.25): 1088.5 ± 0.8 kg/m3
- mass density [12]: 1218.6 ± 0.9 kg/m3
- mass density (313.15 K, 40000 kPa, x1 = 0.5): 1333.1 ± 1 kg/m3
- mass density [13]: 1436 ± 1.1 kg/m3
- mass density (313.15 K, 40000 kPa, x1 = 0.75): 1525.3 ± 1.3 kg/m3
- mass density (313.15 K, 50000 kPa, x1 = 0.25): 1100.5 ± 0.8 kg/m3
- mass density (313.15 K, 50000 kPa, x1 = 0.375): 1232 ± 0.9 kg/m3
- mass density (313.15 K, 50000 kPa, x1 = 0.5): 1347.4 ± 1.1 kg/m3
